≈ marks a conversion by molar mass, not a printed value. Square brackets hold non-standard residues; d marks the D form. Peptide text beside a SMILES is read from it. * marks the point of attachment. X4 = CC(C)C[C@@H](C[N+]1=C2CCCN2CCC1)N*; Pip = O=C(O)[C@@H]1CCCCN1; Iva = CC[C@](C)(N)C(=O)O; Aib = CC(C)(N)C(=O)O; βAla = NCCC(=O)O

Data set [1] is described as follows: Inhibition of bovine heart mitochondrial F0F1-ATPase assessed as reduction in ATP synthesis by fluorescence assay. The data set is classed as mitochondria, Bos taurus, Mitochondria.
Data set [2] can be described thus: Inhibition of bovine heart mitochondrial F0F1-ATPase assessed as decrease in rate of ATP hydrolysis by fluorescence assay. The data set is classed as mitochondria, Bos taurus, Mitochondria.
The subject of data set [3] is T47D. The data set is described as follows: Antiproliferative activity against human T47D cells assessed as reduction in cell viability incubated for 48 hrs by MTT assay. The data set is classed as functional, cell-based. For orientation: Formazan colour is commonly taken as a measure of viable cells.
The test system of data set [4] is MDA-MB-231. Kind of data set: Antiproliferative activity against human MDA-MB-231 cells assessed as reduction in cell viability incubated for 48 hrs by MTT assay. The note with it: MDA-MB-231, 48 h. The data set is classed as functional, cell-based.
For data set [5], the system named is MCF7. The data set is described as follows: Antiproliferative activity against human MCF7 cells assessed as reduction in cell viability incubated for 48 hrs by MTT assay. Format: functional, cell-based. The note with it: MCF7, 48 h.
Data set [6] relates to HL-60. Kind of data set: Antiproliferative activity against human HL-60 cells assessed as reduction in cell viability incubated for 48 hrs by MTT assay. Format: functional, cell-based. The note with it: HL-60, 48 h.
Data set [7] deals with SMMC-7721. Kind of data set: Antiproliferative activity against human SMMC-7721 cells assessed as reduction in cell viability incubated for 48 hrs by MTT assay. Format: functional, cell-based. The note with it: SMMC-7721, 48 h.
The test system of data set [8] is A549. Kind of data set: Antiproliferative activity against human A549 cells assessed as reduction in cell viability incubated for 48 hrs by MTT assay. Format: functional, cell-based. The note with it: A549, 48 h.
For data set [9], the system named is SW480. Kind of data set: Antiproliferative activity against human SW480 cells assessed as reduction in cell viability incubated for 48 hrs by MTT assay. The data set is classed as functional, cell-based. The following applies: SW480, 48 h.
Data set [10] can be described thus: Inhibition of yeast mitochondrial F0F1-ATPase assessed as inhibition constant measured after 20 mins in presence of NADH and ATP by microplate reader analysis. Format: mitochondria, Saccharomyces cerevisiae, Mitochondria.
The subject of data set [11] is NCI-H292. The data set is described as follows: Anticancer activity against human NCI-H292 cells assessed as reduction in cell proliferation incubated for 48 hrs by Calcein AM and Pluronic F-127 staining based fluorescence plate reader analysis. The note with it: NCI-H292, 48 h. The data set is classed as functional.
Data set [12] can be described thus: Inhibition of mitochondrial F0F1-ATPase (unknown origin). Details: species or system Homo sapiens.
For data set [13], the system named is PANC-1. Kind of data set: Anticancer activity against human PANC-1 cells assessed as reduction in cell viability by measuring ATP level incubated for 24 hrs by CellTiter-Glo assay. The following applies: PANC-1, 24 h. The data set is classed as functional, cell-based. A general note: Cellular ATP, detected with luciferase, serves as a proxy for viable cell number.

The nature of data set [14]: Inhibition of yeast mitochondrial F0F1-ATPase incubated for 15 mins by colorimetric assay. The data set is classed as mitochondria, Saccharomyces cerevisiae, Mitochondria.
Data set [15] in a line: Inhibition of bovine heart mitochondrial F0F1-ATP synthase incubated for 15 mins by colorimetric assay. Format: mitochondria, Bos taurus, Mitochondria.
Data set [16] deals with KB 3-1. The data set is described as follows: Antiproliferative activity against human KB-3-1 cells assessed as decrease in cellular ATP content and measured after 2 days by CellTiter-Glo luminescent assay. The data set is classed as functional, cell-based. The following applies: KB 3-1, 48 h.
Data set [17] concerns KB-V1. The data set is described as follows: Antiproliferative activity against human KB-V1 cells assessed as decrease in cellular ATP content and measured after 2 days by CellTiter-Glo luminescent assay. Format: functional, cell-based. The note with it: KB-V1, 48 h.
The test system of data set [18] is K562. Kind of data set: Antiproliferative activity against human K562 cells assessed as decrease in cellular ATP content and measured after 2 days by CellTiter-Glo luminescent assay. The data set is classed as functional, cell-based. The note with it: K562, 48 h.
For data set [19], the system named is U-937. Kind of data set: Antiproliferative activity against human U-937 cells assessed as decrease in cellular ATP content and measured after 2 days by CellTiter-Glo luminescent assay. The note with it: U-937, 48 h. The data set is classed as functional, cell-based.
Data set [20] has as its system A549. Kind of data set: Antiproliferative activity against human A549 cells assessed as decrease in cellular ATP content and measured after 2 days by CellTiter-Glo luminescent assay. The data set is classed as functional, cell-based. The note with it: A549, 48 h.
For data set [21], the system named is A498. Kind of data set: Antiproliferative activity against human A498 cells assessed as decrease in cellular ATP content and measured after 2 days by CellTiter-Glo luminescent assay. The note with it: A498, 48 h. The data set is classed as functional, cell-based.
The subject of data set [22] is SK-OV-3. Kind of data set: Antiproliferative activity against human SK-OV-3 cells assessed as decrease in cellular ATP content and measured after 2 days by CellTiter-Glo luminescent assay. Format: functional, cell-based. The note with it: SK-OV-3, 48 h.
The nature of data set [23]: Cytotoxicity against mouse L929 cells assessed as reduction in cell viability. Format: toxicity, cell-based.
Data set [24] is described as follows: Inhibition of bovine heart mitochondrial F0F1-ATP synthase assessed as rate of NADH oxidation in presence of NADH for 30 mins by colorimetric assay. Format: mitochondria, Bos taurus, Mitochondria.
The test system of data set [25] is HeLa. The data set is described as follows: Cytotoxicity against human HeLa cells assessed as reduction in cell viability. Format: functional, cell-based.
Data set [26] has as its system HL-60. Kind of data set: Cytotoxicity against human HL-60 cells assessed as reduction in cell viability. Format: functional, cell-based.

For orientation: Ki means the dissociation constant of the complex between target and ligand, obtained from inhibition or displacement. What is called IC50 is the point on the concentration scale where inhibition reaches its midpoint. Consider `CC[C@H]1O[C@@]2(C)[C@H](OC(C)=O)[C@@]1(C)O[C@@H](/C=C/C=C/C=C/c1oc(=O)cc(OC)c1C)[C@@H]2O`, for which the values for the Ki in data set [1] and in data set [2] were 25 nM and 120 nM, respectively. Further, the 50% inhibitory concentration (IC50) in data set [3] turned out to be 890 nM; in data set [4], 5520 nM; in [5], 90 nM; in [6] it was 14700 nM; in data set [7], 10800 nM; in data set [8] it was 14700 nM. Moreover, the IC50 in [9] stood at 22400 nM.
Turning to `COC[C@@H](C[C@H]1O[C@@](O)([C@@H]2OC(=O)/C(C)=C/C(C)=C/C(C)=C/[C@@H](C)[C@H](O[C@@H]3O[C@@H](C)[C@H](OC)[C@@H](O)[C@@H]3O)/C=C/C(C)=C/CC[C@H](O)[C@@H](OC)C[C@@H]2O)[C@H](C)[C@@H](O)[C@H]1C)O[C@H]1C[C@](C)(O)[C@@H](O[C@H]2C[C@@H](OC)[C@H](O)[C@@H](C)O2)[C@H](C)O1`, the inhibition constant (Ki) in data set [10] is 17000 nM.
As for `COC[C@@H](C[C@H]1O[C@@](O)([C@H](O)[C@@H]2C[C@H](OC)[C@@H](O)CC/C=C(C)/C=C/[C@@H](O[C@@H]3O[C@@H](C)[C@H](OC)[C@@H](O)[C@@H]3O)[C@H](C)/C=C(C)/C=C(C)/C=C(\C)C(=O)O2)[C@H](C)[C@@H](O)[C@H]1C)O[C@H]1C[C@](C)(O)[C@@H](O[C@H]2C[C@@H](OC)[C@H](O)[C@@H](C)O2)[C@H](C)O1`, the half-maximal inhibitory concentration (IC50) in [11] is 32 nM; in data set [12] it was 700 nM.
For the compound `CC[C@](C)(NC(=O)[C@H](CC(C)C)NC(=O)[C@H](C)NC(=O)C(C)(C)NC(=O)[C@@H]1CCCCN1C(=O)C(C)(C)NC(=O)C(C)(C)NC(=O)CNC(=O)CCNC(=O)[C@H](CC(C)C)NC(=O)C(C)(C)NC(=O)C(C)(C)NC(=O)[C@@H]1CCCCN1C(=O)C(C)(C)NC(=O)[C@@H]1CCCCN1C(C)=O)C(=O)N[C@@H](CC(C)C)C[N+]1=C2CCCN2CCC1` (Ac-[Pip][Aib][Pip][Aib][Aib]L[βAla]G[Aib][Aib][Pip][Aib]AL[Iva]-X4), the 50% inhibitory concentration (IC50) in [13] worked out at 52 nM.
For the compound `CCC[C@H](O)[C@@H](C)C(=O)NC/C=C\C[C@@H](C)[C@@H](O)[C@H](C)[C@@H]1C/C=C\C[C@H](C)[C@H](O)Cc2cc(OC)cc(O)c2C(=O)O1`, the 50% inhibitory concentration (IC50) in data set [14] was 15 nM; in data set [15] it was 15 nM; in data set [16], 0.3 ng/mL (≈ 0.509 nM); in data set [17], 0.6 ng/mL (≈ 1.02 nM); in data set [18], 0.6 ng/mL (≈ 1.02 nM); in [19], 0.1 ng/mL (≈ 0.17 nM). Moreover, the half-maximal inhibitory concentration (IC50) in [20] worked out at 0.4 ng/mL (≈ 0.678 nM); in data set [21] it was 0.4 ng/mL (≈ 0.678 nM); in data set [22] it was 1 ng/mL (≈ 1.7 nM); in data set [23] it was 1.2 ng/mL (≈ 2.03 nM).
Consider `CC[C@@H](O)C[C@@H]1O[C@@]2(CC[C@@H]1C)C[C@H]1C[C@H](CC[C@@H](CC)/C=C/C=C/CCC[C@@](C)(O)[C@H](O)C[C@H](O)C[C@@H](O)[C@@H](C)[C@H](O)[C@@H](CC)/C=C/C(=O)O1)O2`, for which the IC50 in [24] came to 1000 nM; in data set [25], 8200 nM; in data set [26], 5800 nM.

These data come from ChEMBL document CHEMBL5230122, “Natural products and other inhibitors of F1FO ATP synthase” (Eur J Med Chem, 2020).
